In publication PMC9141032 (International Journal of Molecular Sciences, 2022):

How the values were obtained:
[1] = parameters: method as in ref 32, 33 = [32]; 32. Escolano C. Pallás M. Griñán-Ferré C. Abás S. Callado L.-F. García-Sevilla J.A. Synthetic I 2 Imidazoline Receptor Ligands for Prevention or Treatment of Human Brain Disorders Patent WO 2019/12185 || [33]; PMID 32150414; doi:10.1021/acs.jmedchem.9b02080; 33. Abás S. Rodríguez-Arévalo S. Bagán A. Griñán-Ferré C. Vasilopoulou F. Brocos-Mosquera I. Muguruza C. Pérez B. Molins E. Luque F.J. Bicyclic α-Iminophosphonates as High Affinity Imidazoline I 2 Rec; settings: cited from earlier work
[2] = system: SH-SY5Y cells; assay: Protection of SH-SY5Y cells from 6-OHDA-induced death (MTT); settings: 6-OHDA 25 μM 16 h
[3] = system: primary microglial cells; assay: Nitrite production (Griess) in LPS-treated primary microglia; settings: 1 μM 1 h, then LPS 10 μg/mL 24 h
[4] = Metabolic stability in human liver microsomes; type: in vitro ADME; settings: HLM
Procedure: In the assay, the reaction was initiated by adding HLM (1 mg/mL) to an equal volume of buffer solution containing the test compound and cofactors at the proper concentrations. Reactions without NADPH were also incubated to rule out non-NADPH metabolism or chemical instability in the incubation buffer. Verapamil was included as a positive control to monitor incubation course. All reactions were terminated using 60 µL of ice-cold acetonitrile at 0, 5, 15, 30, 45, and 60 min. The plates were centrifugated at 3500 rpm for 15 min. All experiments were conducted in triplicate. Samples were monitored for B06 disappearance by LC-MS in MRM mode according to a quantitation method for B06. […]
concentration 1 μM, protein concentration 1 mg/mL, NADPH, 1.3 mM. Potassium phosphate buffer (100 mM) pH 7.4 and human liver microsomes, were purchased from Beckton Dickinson. […]
needed for the study was Beckman Coulter Refrigerated centrifuge, Agilent 1290 Infinity Liquid Chromatograph, CTC Analytics PAL HT‐xt injector, Api4000 Mass Spectrometer. Total incubation […]
Analysis: For the data analysis the area ratio of analyzed versus internal standard was used to calculate the percentage of remaning compound at each incubation time. The natural logarithm of […]
the following equation: Half‐life (T1/2) (min) = 0.693/k (the slope of the natural log of the percent remaining versus time). Intrinsic clearance was determined by the following equation: Clint H = Ln 2/t1/2 (min) x volume incubation (mL)/microsomal protein (mg) x 45 (MPPGL) 1500 g human liver/ 70 Kg human body weight. Units for CLint are usually expressed as mL/min/mg microsomal protein, MPPGL = referred to as mg microsomal protein per gram liver.
Table S1. Summary of LC‐MS conditions
Table S2. Percentage of verapamil remaining at each incubation time […]

[5] = system: mice; parameters: method as in ref 33 = [33]; PMID 32150414; doi:10.1021/acs.jmedchem.9b02080; 33. Abás S. Rodríguez-Arévalo S. Bagán A. Griñán-Ferré C. Vasilopoulou F. Brocos-Mosquera I. Muguruza C. Pérez B. Molins E. Luque F.J. Bicyclic α-Iminophosphonates as High Affinity Imidazoline I 2 Rec; settings: repeated administration of 20 mg/kg for 5 days; cited from earlier work
[6] = In vivo pharmacokinetics in plasma; parameters: species or system mouse
Procedure: After treatment, mice were euthanized, and the plasma and brain were collected.
Male CD1 mice were supplied by the Laboratory Animal Service of the University of Granada (Granada, Spain) and housed in the Animal Facilities of the Center of Biomedical Investigation of the University of Granada. […] Calculations were performed using noncompartmental analysis of plasma data after intraperitoneal injection by means of PK Solver 2.0.
Basic PK parameters were calculated.

[7] = system: SH-SY5Y cells; assay: Active caspase 3 in 6-OHDA-treated SH-SY5Y cells (immunodetection, Western blot); settings: 1 μM, 16 h after 6-OHDA
[8] = Stability in mouse plasma; type: in vitro ADME; settings: 10 µM, 37 °C
Procedure: The assessment of the plasma stability avoids misleading in vitro data and complex interpretation of the in vivo PK. […] Then, centrifugation led to a supernatant that was analysed for sample quantification.
Mouse plasma pooled from healthy donors extracted in citrate tubes was employed in the assay. […] Then, 100 µL of acetonitrile was added to precipitate the plasma protein, and the plate was centrifuged at 46,000× g for 60 min at 5 °C. Supernatant was taken and analysed by UPLC/MS/MS for sample quantification. The stationary phase was a reverse phase Acquity UPLC®BEH C18 1.7 µm (2.1 × 50 mm) (Waters), and the mobile phase was 0.1% formic acid in water/0.1% formic acid in acetonitrile, using a gradient and flow rate of 0.6 mL/min. The chromatographic equipment employed was an UPLC QSM Waters Acquity, and the compound concentrations were calculated from the MS peak areas.

[9] = system: SAMP8 murine model; settings: cited from earlier work
[10] = male, CD1, mouse, ip, plasma, mice, 10 mg/kg intraperitoneal
[11] = plasma, mice, 10 mg/kg intraperitoneal

CCOP(=O)(OCC)[C@]1(c2ccccc2)N=C[C@H]2C(=O)N(c3ccc(F)c(Cl)c3)C(=O)[C@H]21 (racemic) [B06, diethyl (1RS,3aSR,6aSR)-5-(3-chloro-4-fluorophenyl)-4,6-dioxo-1-phenyl-1,3a,4,5,6,6a-hexahydropyrrolo[3,4-c]pyrrole-1-phosphonate]
Pe value in PAMPA (BBB permeation) [1]: well above the threshold established for high BBB permeation
protection from 6-OHDA-induced cell death ([2]; 1 μM, 1 h pre-treatment): significantly rescued human dopaminergic cells from 6-OHDA-induced apoptosis
lowest concentration at which the most beneficial effect was obtained ([2]; dose-response, MTT): 1 µM
effect on nitrite production [3]: significant decrease in nitrite production
hepatic clearance category ([4]; classification bands low/medium/high): medium clearance
% compound remaining ([4]; minus NADPH, 0 min): 103.2 ± 13.82%
% compound remaining ([4]; minus NADPH, 60 min): 75.30 ± 1.27%
% compound remaining ([4]; plus NADPH, 0 min): 100.00 ± 14.46%
% compound remaining ([4]; plus NADPH, 5 min): 98.60 ± 9.11%
% compound remaining ([4]; plus NADPH, 15 min): 77.90 ± 13.20%
% compound remaining ([4]; plus NADPH, 30 min): 54.10 ± 6.84%
% compound remaining ([4]; plus NADPH, 45 min): 41.3 ± 5.83%
% compound remaining ([4]; plus NADPH, 60 min): 29.40 ± 3.69%
half-life at 1 μM ([4]; human, human liver microsomes, pH 7.4, 1 µM, 1 mg/mL protein): 28.4 min
effect on body temperature [5]: hypothermia
AUC(0-inf) [6, 10]: 3050 ng·h/mL
Tmax [6, 10]: 15 min
Cmax ([6]; male, CD1, mouse, ip, plasma, mice, 10 mg/kg intraperitoneal, single dose): 950 ± 624 ng/mL
AUC(0-t) ([6]; male, CD1, mouse, ip, plasma, mice, 10 mg/kg intraperitoneal, read-out: AUC0–1440 (converted)): 2950 ng·h/mL
half-life ([6]; male, CD1, mouse, plasma, ip, 10 mg/kg, mice, 10 mg/kg intraperitoneal): 313 min
Cl (plasma clearance) [6, 11]: 0.054 ± 0.011 (mg/kg)/(μg/mL)
Vz (volume of distribution) [6, 11]: 24.56 ± 4.74 (mg/kg)/(μg/mL)
t1/2 ([6]; plasma, mice, 10 mg/kg intraperitoneal, 10 mg/kg): 312.81 min
maximum mean concentration in plasma as % of the drug administered ([6]; single dose intraperitoneally): ≤ 1%
effect on 6-OHDA-induced increase of cells expressing active caspase 3 [7]: this effect was reversed by the treatment with B06
remaining percentage in mouse plasma ([8]; 0 min): 100%
remaining percentage in mouse plasma ([8]; 10 min): 100%
remaining percentage in mouse plasma ([8]; 20 min): 69.7%
remaining percentage in mouse plasma ([8]; 40 min): 48.3%
remaining percentage in mouse plasma ([8]; 60 min): 21.6%
effect on cognition and behaviour [9]: improving cognition and ameliorating anxiety-like behaviour
